{
  "source": "paper PMC6812009",
  "about": "“Covalent Aurora A regulation by the metabolic integrator coenzyme A” (Redox Biology, 2019)",
  "experiment_in_all_cases": "Kinase profiling screen (radioactive filter-binding assay)",
  "format_in_all_cases": "biochemical",
  "key": {"PKCγ": {"target": "PKCγ (Homo sapiens, UniProt P05129)", "conditions": "100 μM compound, 20 μM ATP; read-out: Kinase activity, % of activity in the absence of inhibitor", "how_it_was_run": "(§1)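 Residual kinase activity is read in duplicate wells containing 100 μM final test compound (CoA, dpCoA or ADP). Recombinant kinases use model substrates at ATP levels optimal for each enzyme, across a 117-kinase screen.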"}, "DAPK1": {"target": "DAPK1 (Homo sapiens, UniProt P53355)", "conditions": "100 μM compound, 5 μM ATP; read-out: Kinase activity, % of activity in the absence of inhibitor", "how_it_was_run": "as §1"}, "FGF-R1": {"target": "FGF-R1 (Homo sapiens, UniProt P11362)", "sequence (P11362 22-822)": "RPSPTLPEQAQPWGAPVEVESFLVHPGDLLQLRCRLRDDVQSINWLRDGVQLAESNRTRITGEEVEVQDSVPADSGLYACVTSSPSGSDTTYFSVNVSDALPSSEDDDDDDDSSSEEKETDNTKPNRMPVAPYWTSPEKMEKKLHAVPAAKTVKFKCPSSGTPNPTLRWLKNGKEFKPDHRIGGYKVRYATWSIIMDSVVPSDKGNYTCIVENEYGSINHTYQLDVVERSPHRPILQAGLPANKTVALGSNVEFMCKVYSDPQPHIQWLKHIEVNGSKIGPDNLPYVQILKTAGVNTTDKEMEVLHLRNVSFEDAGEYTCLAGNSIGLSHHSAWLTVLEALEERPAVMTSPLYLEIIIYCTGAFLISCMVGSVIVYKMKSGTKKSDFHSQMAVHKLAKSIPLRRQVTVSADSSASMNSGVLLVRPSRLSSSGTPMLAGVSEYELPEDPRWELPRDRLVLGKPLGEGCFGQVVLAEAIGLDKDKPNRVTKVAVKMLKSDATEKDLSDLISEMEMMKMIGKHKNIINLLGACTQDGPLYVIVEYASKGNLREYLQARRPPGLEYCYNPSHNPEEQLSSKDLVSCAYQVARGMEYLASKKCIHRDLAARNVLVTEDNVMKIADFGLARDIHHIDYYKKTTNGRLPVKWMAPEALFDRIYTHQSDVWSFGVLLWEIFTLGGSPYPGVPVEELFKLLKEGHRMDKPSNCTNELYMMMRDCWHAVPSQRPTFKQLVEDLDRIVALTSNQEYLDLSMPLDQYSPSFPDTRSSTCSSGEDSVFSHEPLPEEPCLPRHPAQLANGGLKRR", "conditions": "for activity at 100 µM: 100 μM compound, 20 μM ATP, read-out: Kinase activity, % of activity in the absence of inhibitor", "how_it_was_run": "as §1"}, "CK2α": {"target": "CK2α (Homo sapiens, UniProt P68400)", "conditions": "100 μM compound, 5 μM ATP; read-out: Kinase activity, % of activity in the absence of inhibitor", "how_it_was_run": "as §1"}, "MNK1": {"target": "MNK1 (Homo sapiens, UniProt Q9BUB5)", "sequence (Q9BUB5 whole entry)": "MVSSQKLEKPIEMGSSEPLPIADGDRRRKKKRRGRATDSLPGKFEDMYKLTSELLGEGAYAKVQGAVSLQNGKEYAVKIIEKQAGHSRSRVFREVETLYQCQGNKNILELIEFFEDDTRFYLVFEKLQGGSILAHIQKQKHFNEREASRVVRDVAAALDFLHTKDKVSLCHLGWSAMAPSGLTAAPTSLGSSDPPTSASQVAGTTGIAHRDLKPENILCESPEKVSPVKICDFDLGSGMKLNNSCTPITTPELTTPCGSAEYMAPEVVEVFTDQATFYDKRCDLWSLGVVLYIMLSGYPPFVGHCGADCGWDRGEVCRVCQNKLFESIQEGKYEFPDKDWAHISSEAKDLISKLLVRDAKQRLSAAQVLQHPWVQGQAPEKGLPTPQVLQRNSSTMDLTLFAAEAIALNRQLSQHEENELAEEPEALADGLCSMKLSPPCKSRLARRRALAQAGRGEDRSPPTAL", "conditions": "100 μM compound, 50 μM ATP; read-out: Kinase activity, % of activity in the absence of inhibitor", "how_it_was_run": "as §1"}, "TAO1": {"target": "T1, TAO1 (Homo sapiens, UniProt Q7L7X3)", "T1 sequence (Q7L7X3 1-1001)": "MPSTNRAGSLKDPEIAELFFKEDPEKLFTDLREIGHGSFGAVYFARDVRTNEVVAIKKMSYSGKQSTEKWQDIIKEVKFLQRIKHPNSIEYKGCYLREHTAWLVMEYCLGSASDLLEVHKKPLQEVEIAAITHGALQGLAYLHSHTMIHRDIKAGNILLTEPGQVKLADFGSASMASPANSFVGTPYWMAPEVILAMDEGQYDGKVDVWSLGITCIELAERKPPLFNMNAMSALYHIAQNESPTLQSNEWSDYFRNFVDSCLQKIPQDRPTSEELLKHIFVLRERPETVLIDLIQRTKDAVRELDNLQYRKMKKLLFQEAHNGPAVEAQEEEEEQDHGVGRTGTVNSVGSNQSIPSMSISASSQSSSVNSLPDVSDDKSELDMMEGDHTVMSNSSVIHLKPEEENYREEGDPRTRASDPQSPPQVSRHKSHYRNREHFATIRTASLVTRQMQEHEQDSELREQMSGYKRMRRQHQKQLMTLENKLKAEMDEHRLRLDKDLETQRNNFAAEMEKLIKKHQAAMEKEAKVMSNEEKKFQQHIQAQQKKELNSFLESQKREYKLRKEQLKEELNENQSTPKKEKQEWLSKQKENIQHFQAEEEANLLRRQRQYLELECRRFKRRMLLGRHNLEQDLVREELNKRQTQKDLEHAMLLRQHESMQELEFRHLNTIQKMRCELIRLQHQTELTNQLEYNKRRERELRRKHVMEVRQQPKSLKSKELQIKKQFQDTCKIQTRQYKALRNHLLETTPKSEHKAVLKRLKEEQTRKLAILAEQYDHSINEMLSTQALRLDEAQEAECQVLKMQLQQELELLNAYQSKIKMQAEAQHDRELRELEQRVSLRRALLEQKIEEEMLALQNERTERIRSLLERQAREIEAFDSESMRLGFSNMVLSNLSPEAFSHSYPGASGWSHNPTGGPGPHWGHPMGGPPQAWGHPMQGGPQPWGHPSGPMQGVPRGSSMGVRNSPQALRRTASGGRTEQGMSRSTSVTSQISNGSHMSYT", "conditions": "100 μM compound, 20 μM ATP; read-out: Kinase activity, % of activity in the absence of inhibitor", "how_it_was_run": "as §1"}, "MST4": {"target": "MST4 (Homo sapiens, UniProt Q9P289)", "sequence (Q9P289 whole entry)": "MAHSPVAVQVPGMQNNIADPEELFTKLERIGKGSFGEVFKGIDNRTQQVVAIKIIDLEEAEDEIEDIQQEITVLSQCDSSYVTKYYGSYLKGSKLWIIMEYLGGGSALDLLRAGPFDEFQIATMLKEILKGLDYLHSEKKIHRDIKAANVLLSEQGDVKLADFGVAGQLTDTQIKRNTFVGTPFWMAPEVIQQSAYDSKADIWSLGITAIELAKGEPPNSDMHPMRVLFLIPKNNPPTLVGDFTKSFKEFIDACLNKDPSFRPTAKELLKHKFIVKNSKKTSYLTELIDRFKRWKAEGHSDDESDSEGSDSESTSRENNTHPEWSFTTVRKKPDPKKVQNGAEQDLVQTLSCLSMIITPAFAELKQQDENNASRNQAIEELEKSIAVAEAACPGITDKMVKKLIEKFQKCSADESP", "conditions": "100 μM compound, 20 μM ATP; read-out: Kinase activity, % of activity in the absence of inhibitor", "how_it_was_run": "as §1"}, "MLK3": {"target": "MLK3 (Homo sapiens, UniProt Q16584)", "sequence (Q16584 whole entry)": "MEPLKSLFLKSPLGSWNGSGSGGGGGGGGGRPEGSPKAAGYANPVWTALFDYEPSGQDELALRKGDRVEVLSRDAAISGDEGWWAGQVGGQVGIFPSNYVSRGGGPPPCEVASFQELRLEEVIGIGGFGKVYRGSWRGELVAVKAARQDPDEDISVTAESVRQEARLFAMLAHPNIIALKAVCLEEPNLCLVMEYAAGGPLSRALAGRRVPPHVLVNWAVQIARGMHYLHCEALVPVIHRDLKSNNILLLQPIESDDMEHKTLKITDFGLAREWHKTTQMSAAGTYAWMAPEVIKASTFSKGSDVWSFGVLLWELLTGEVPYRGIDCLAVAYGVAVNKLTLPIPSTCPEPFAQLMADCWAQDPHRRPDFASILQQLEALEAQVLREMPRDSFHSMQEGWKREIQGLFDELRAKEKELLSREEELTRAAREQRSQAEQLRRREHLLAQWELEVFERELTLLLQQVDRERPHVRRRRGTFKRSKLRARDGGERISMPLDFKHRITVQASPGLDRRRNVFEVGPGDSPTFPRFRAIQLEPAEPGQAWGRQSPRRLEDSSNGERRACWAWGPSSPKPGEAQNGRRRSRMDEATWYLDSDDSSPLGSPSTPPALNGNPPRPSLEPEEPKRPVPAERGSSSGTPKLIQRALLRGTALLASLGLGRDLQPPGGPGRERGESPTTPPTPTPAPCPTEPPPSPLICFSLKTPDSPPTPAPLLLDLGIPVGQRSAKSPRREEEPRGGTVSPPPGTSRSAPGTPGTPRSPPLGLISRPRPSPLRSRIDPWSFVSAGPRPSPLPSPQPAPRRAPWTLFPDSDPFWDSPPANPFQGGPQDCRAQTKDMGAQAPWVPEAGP", "conditions": "100 μM compound, 20 μM ATP; read-out: Kinase activity, % of activity in the absence of inhibitor", "how_it_was_run": "as §1"}, "BTK": {"target": "BTK (Homo sapiens, UniProt Q06187)", "sequence (Q06187 whole entry)": "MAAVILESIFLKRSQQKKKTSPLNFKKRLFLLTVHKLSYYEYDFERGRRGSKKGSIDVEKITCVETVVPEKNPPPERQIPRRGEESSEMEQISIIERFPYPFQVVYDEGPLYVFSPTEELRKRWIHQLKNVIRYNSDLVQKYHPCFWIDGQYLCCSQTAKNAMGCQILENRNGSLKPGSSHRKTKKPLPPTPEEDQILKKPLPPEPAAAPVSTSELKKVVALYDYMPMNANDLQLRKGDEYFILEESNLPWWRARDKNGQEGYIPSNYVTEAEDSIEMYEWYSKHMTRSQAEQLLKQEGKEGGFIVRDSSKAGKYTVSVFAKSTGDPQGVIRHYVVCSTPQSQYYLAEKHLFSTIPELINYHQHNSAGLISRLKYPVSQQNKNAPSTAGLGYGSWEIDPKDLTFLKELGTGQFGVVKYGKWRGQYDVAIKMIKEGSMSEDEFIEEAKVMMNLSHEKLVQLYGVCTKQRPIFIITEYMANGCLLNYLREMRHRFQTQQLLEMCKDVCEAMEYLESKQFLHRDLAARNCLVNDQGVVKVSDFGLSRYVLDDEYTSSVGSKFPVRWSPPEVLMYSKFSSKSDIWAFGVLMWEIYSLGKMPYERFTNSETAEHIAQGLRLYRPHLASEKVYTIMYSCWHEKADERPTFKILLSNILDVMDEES", "conditions": "for activity at 100 µM: 100 μM compound, 50 μM ATP, read-out: Kinase activity, % of activity in the absence of inhibitor", "how_it_was_run": "as §1"}, "MST2": {"target": "T2, MST2 (Homo sapiens, UniProt Q13188)", "T2 sequence (Q13188 1-491)": "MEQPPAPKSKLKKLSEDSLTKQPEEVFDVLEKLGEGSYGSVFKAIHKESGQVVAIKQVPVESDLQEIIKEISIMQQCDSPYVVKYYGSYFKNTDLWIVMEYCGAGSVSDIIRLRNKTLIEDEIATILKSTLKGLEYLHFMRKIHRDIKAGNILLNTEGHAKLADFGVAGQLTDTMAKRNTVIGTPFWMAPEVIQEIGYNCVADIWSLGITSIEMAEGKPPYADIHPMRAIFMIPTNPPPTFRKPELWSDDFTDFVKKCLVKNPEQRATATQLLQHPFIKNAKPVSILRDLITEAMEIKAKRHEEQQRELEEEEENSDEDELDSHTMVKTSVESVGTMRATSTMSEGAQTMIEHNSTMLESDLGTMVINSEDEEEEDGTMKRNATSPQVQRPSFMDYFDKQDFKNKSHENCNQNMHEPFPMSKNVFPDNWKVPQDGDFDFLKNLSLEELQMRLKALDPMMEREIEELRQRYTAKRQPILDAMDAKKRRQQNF", "conditions": "100 μM compound, 20 μM ATP; read-out: Kinase activity, % of activity in the absence of inhibitor", "how_it_was_run": "as §1"}, "SmMLCK": {"target": "SmMLCK (Homo sapiens, UniProt Q15746)", "sequence (Q15746 923-1914)": "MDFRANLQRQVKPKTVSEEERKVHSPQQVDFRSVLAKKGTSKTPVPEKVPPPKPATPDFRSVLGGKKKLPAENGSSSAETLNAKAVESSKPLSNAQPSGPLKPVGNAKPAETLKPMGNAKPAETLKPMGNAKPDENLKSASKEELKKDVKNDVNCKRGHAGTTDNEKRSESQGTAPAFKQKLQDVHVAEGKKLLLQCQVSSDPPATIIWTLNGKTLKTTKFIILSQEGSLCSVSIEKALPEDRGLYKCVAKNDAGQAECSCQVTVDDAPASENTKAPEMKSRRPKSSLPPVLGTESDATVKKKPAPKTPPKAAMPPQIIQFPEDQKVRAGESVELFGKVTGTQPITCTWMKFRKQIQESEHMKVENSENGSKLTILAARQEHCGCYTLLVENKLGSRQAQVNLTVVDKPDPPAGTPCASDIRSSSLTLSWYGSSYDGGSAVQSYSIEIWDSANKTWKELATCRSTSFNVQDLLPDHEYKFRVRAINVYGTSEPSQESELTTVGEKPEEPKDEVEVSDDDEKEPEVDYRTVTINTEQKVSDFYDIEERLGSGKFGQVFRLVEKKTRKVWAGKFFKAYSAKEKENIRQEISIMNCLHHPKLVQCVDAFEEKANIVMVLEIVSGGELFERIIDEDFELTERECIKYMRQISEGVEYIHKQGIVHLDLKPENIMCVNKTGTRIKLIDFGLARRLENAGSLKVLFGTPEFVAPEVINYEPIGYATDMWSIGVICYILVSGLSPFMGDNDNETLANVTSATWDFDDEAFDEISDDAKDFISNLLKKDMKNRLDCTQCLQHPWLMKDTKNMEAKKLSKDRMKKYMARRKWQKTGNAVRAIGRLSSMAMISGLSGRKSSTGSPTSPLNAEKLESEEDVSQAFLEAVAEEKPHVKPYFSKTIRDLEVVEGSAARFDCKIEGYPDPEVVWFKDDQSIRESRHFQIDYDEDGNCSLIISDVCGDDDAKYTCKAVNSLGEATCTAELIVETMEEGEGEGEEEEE", "conditions": "100 μM compound, 20 μM ATP; read-out: Kinase activity, % of activity in the absence of inhibitor", "how_it_was_run": "as §1"}, "JNK2": {"target": "JNK2 (Homo sapiens, UniProt P45984)", "sequence (P45984 whole entry)": "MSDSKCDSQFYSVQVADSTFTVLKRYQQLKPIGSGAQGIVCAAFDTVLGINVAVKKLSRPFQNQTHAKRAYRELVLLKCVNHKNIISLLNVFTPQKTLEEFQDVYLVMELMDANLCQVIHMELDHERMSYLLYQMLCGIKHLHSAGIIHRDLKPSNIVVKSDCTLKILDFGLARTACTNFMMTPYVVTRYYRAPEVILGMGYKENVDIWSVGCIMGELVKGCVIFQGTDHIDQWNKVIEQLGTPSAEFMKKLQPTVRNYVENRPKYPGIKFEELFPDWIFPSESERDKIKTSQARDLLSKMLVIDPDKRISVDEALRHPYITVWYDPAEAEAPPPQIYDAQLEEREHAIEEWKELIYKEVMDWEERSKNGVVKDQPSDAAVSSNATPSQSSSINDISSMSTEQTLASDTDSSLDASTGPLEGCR", "conditions": "100 μM compound, 20 μM ATP; read-out: Kinase activity, % of activity in the absence of inhibitor", "how_it_was_run": "as §1"}, "MSPK1": {"target": "MSPK1 (Homo sapiens, UniProt O75716)", "sequence (O75716 whole entry)": "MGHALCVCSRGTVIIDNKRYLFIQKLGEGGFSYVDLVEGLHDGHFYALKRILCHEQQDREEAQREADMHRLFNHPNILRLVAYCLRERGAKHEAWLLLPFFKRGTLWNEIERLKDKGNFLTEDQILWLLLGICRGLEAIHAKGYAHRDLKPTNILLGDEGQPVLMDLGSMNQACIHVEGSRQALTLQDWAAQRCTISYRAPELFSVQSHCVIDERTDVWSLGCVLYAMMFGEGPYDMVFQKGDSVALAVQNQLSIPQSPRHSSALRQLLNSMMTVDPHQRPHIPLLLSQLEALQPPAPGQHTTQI", "conditions": "100 μM compound, 50 μM ATP; read-out: Kinase activity, % of activity in the absence of inhibitor", "how_it_was_run": "as §1"}},
  "data": [
    {"smiles": "Nc1ncnc2c1ncn2C1OC(COP(=O)(O)OP(=O)(O)O)C(O)C1O", "note": "(centres unmarked) [ADP]", "values": [
      {"measurement": "activity at 100 µM", "setting": "PKCγ", "result": 71.9, "unit": "%"},
      {"measurement": "activity at 100 µM", "setting": "DAPK1", "result": 10.3, "unit": "%"},
      {"measurement": "activity at 100 µM", "setting": "FGF-R1", "result": 41.7, "unit": "%"},
      {"measurement": "activity at 100 µM", "setting": "CK2α", "result": 5.4, "unit": "%"},
      {"measurement": "activity at 100 µM", "setting": "MNK1", "result": 60.7, "unit": "%"},
      {"measurement": "activity at 100 µM", "setting": "TAO1", "result": 34, "unit": "%"},
      {"measurement": "activity at 100 µM", "setting": "MST4", "result": 56.9, "unit": "%"},
      {"measurement": "activity at 100 µM", "setting": "MLK3", "result": 46.8, "unit": "%"},
      {"measurement": "activity at 100 µM", "setting": "BTK", "result": 18.2, "unit": "%"},
      {"measurement": "activity at 100 µM", "setting": "MST2", "result": 40.5, "unit": "%"},
      {"measurement": "activity at 100 µM", "setting": "SmMLCK", "result": 73, "unit": "%"},
      {"measurement": "activity at 100 µM", "setting": "JNK2", "result": 57.3, "unit": "%"},
      {"measurement": "activity at 100 µM", "setting": "MSPK1", "result": 94.1, "unit": "%"}
    ]},
    {"smiles": "CC(C)(COP(=O)(O)OP(=O)(O)OCC1OC(n2cnc3c(N)ncnc32)C(O)C1O)C(O)C(=O)NCCC(=O)NCCS", "note": "(centres unmarked) [dpCoA, dephospho-CoA]", "values": [
      {"measurement": "activity at 100 µM", "setting": "PKCγ", "result": 66.4, "unit": "%"},
      {"measurement": "activity at 100 µM", "setting": "DAPK1", "result": 64.4, "unit": "%"},
      {"measurement": "activity at 100 µM", "setting": "FGF-R1", "result": 31.4, "unit": "%"},
      {"measurement": "activity at 100 µM", "setting": "CK2α", "result": 39.8, "unit": "%"},
      {"measurement": "activity at 100 µM", "setting": "MNK1", "result": 84.2, "unit": "%"},
      {"measurement": "activity at 100 µM", "setting": "TAO1", "result": 98.3, "unit": "%"},
      {"measurement": "activity at 100 µM", "setting": "MST4", "result": 89.7, "unit": "%"},
      {"measurement": "activity at 100 µM", "setting": "MLK3", "result": 61.9, "unit": "%"},
      {"measurement": "activity at 100 µM", "setting": "BTK", "result": 30.6, "unit": "%"},
      {"measurement": "activity at 100 µM", "setting": "MST2", "result": 72.5, "unit": "%"},
      {"measurement": "activity at 100 µM", "setting": "SmMLCK", "result": 91.3, "unit": "%"},
      {"measurement": "activity at 100 µM", "setting": "JNK2", "result": 76.1, "unit": "%"},
      {"measurement": "activity at 100 µM", "setting": "MSPK1", "result": 102, "unit": "%"}
    ]},
    {"smiles": "CC(C)(COP(=O)(O)OP(=O)(O)OC[C@H]1O[C@@H](n2cnc3c(N)ncnc32)[C@H](O)[C@@H]1OP(=O)(O)O)[C@@H](O)C(=O)NCCC(=O)NCCS", "note": "[CoA, Coenzyme A]", "values": [
      {"measurement": "activity at 100 µM", "setting": "PKCγ", "result": 70.2, "unit": "%"},
      {"measurement": "activity at 100 µM", "setting": "DAPK1", "result": 106, "unit": "%"},
      {"measurement": "activity at 100 µM", "setting": "FGF-R1", "result": 60, "unit": "%"},
      {"measurement": "FGFR1 inhibition (in words)", "setting": "FGF-R1; kinase profiling, 100 μM", "result": "modestly inhibited"},
      {"measurement": "activity at 100 µM", "setting": "CK2α", "result": 80.1, "unit": "%"},
      {"measurement": "activity at 100 µM", "setting": "MNK1", "result": 150, "unit": "%"},
      {"measurement": "activity at 100 µM", "setting": "TAO1", "result": 113, "unit": "%"},
      {"measurement": "activity at 100 µM", "setting": "MST4", "result": 107, "unit": "%"},
      {"measurement": "activity at 100 µM", "setting": "MLK3", "result": 70.2, "unit": "%"},
      {"measurement": "activity at 100 µM", "setting": "BTK", "result": 67.9, "unit": "%"},
      {"measurement": "BTK inhibition (in words)", "setting": "BTK; kinase profiling, 100 μM", "result": "modestly inhibited"},
      {"measurement": "activity at 100 µM", "setting": "MST2", "result": 119, "unit": "%"},
      {"measurement": "activity at 100 µM", "setting": "SmMLCK", "result": 92.1, "unit": "%"},
      {"measurement": "activity at 100 µM", "setting": "JNK2", "result": 93.9, "unit": "%"},
      {"measurement": "activity at 100 µM", "setting": "MSPK1", "result": 102, "unit": "%"}
    ]}
  ]
}
